# Reference: patent publication US6969732B2, “Propylisopropyl acetic acid and propylisopropyl acetamide stereoisomers, a method for their synthesis and pharmaceutical compositions containing them” (Yissum Research Development Company of the Hebrew …, priority 1999, dated 2005)
# What was measured:
# mice [1] = assay: Subcutaneous pentylenetetrazol (sc Met) test in mice; assay type: in vivo; settings: for sc Met: intraperitoneal administration
# Excerpt: (§1) Individual enantiomers of PID were screened in mice for their anticonvulsant activity (by the NIH Epilepsy Branch) following intraperitoneal administration to mice by employing a screening procedure which involves: (i) the maximal electoshock (MES) test, which measures seizure spread; (ii) the subcutaneous pentylenetetrazol test sc. Met. Test), which measures seizure threshold; and (iii) the rotorod ataxia test, which assesses neurotoxicity.
# NMRI mice = settings: single 3 mmol/kg subcutaneously in 25% Cremophor EL, day 8 of gestation; for Total Implants: examined day 18
# Protocol: Mice of the NMRI strain (Harlan-Winkelmann GmbH, 33176 Borchen, Germany) were kept under controlled conditions: Room temperature (21±1° C.), relative humidity (50±5%), and a 12 hour light-dark cycle with the light period from 10 a.m. to 10 p.m. Females weighing 28 to 36 g were mated with males of the same strain for 3 hours (from 6 a.m. to 9 a.m.). Animals with vaginal plugs were separated, and the following 24 hour period was designated as day 0 of pregnancy. The animals were given free access to food (Altromin 1324 diet, Lage, Germany) and tap water. Approval for the study was obtained from the Department of Health.
# Sodium valproate (VPA-Na), racemic PID, (2R)-PID and (2S)-PID were suspended in a 25% Cremophor EL aqueous solution. For another treatment group, VPA-Na was dissolved in distilled water. The pregnant dams were injected with a single 3 mmol/kg subcutaneously dose (10 ml/kg volume administered) on the morning of day 8 of gestation. Mice of the control group were injected with the vehicle, 25% Cremophor EL solution (10 ml/kg volume administered). […] Living fetuses were weighed individually and inspected for the presence of external malformations.
# rats = assay: Anticonvulsant activity in rats following oral feeding; assay type: in vivo; settings: for ED50: Rattus norvegicus
# Excerpt: as §1
# Individual enantiomers of PID were screened in rats for their anticonvulsant activity following oral feeding, by the procedure described in the previous section.
# mice [2] = assay: Rotorod ataxia test (neurotoxicity) in mice; assay type: in vivo; settings: for Neurotox.: mice, intraperitoneal administration, rotorod ataxia test
# Excerpt: as §1
# anaesthetized rats = assay: Dural plasma protein (BSA) extravasation evoked by unilateral trigeminal ganglion stimulation; assay type: in vivo; settings: FIG. 7
# Excerpt: The animal model used in this study is the one developed by Moskowitz et al. (F. M. Cutrer, V. Limmroth and M. A. Moskowitz: Possible mechanisms of valproate in migraine prophylaxis, Cephalalgia 17:93-100 (1997)). Moskowitz et. al. examined the plasma protein extravasation following electrical trigeminal ganglion stimulation or intravenous administration of substance P. It was concluded that in this model valproic acid blocks plasma extravasation in the meninges through GABAA-mediated postjunctional receptors probably within the meninges. […] Thus, agonists and modulators at the GABAA receptor may become useful for the development of selective drugs for migraine and cluster headache (W. S. Lee et. al.: Peripheral GABAA receptor mediated effects of sodium valproate on durnal plasma protein extravasation to substance P and trigeminal stimulation, Toward Migraine 2000, F. C. Rose Ed. Elsevier, Amsterdam, 1996, pp.289-319).
# We tested the effects of PID on dural plasma protein (Bovine Serum Albumine—BSA) extravasation evoked by unilateral trigeminal gangelion stimulation in anaesthetized rats.
# [3] = ratio (S)-PID to (R)-PID, mice ip
structure (smiles),measurement,setting,value
"CCC[C@@H](C(N)=O)C(C)C [(R)-PID, (R)-propylisopropyl acetamide]","anticonvulsant activity compared with (2S)-PID, sc Met test","mice [1]; mice, i.p. administration",more active and showed better potency than (2S)-PID
same,sc Met,mice [1]; mice,67
same,Embryolethality (percent of total implants),NMRI mice,15.2%
same,Exencephaly (percent of live fetuses),NMRI mice,0 (0) %
same,Fetal Weight,NMRI mice,1.16 ± 0.08 g
same,Live Fetuses,NMRI mice,78 n
same,Total Implants,NMRI mice,92 n
same,ED50,rats; oral feeding,16 mg/kg
same,"anticonvulsant activity compared with (2S)-PID, MES and sc Met tests",rats; oral administration,more active and showed better potency than (2S)-PID
same,Neurotox.,mice [2],<145
"CCC[C@H](C(N)=O)C(C)C [(S)-PID, (S)-propylisopropyl acetamide]",sc Met,mice [1]; mice,80
same,sc Met S/R,mice [1]; [3],1.19
same,Embryolethality (percent of total implants),NMRI mice,9.4%
same,Exencephaly (percent of live fetuses),NMRI mice,0 (0) %
same,Fetal Weight,NMRI mice,1.15 ± 0.09 g
same,Live Fetuses,NMRI mice,58 n
same,Total Implants,NMRI mice,64 n
same,ED50,rats; oral feeding,26 mg/kg
same,Neurotox.,mice [2],118
same,Neurotox. S/R,mice [2]; [3],>0.81
"CCCC(C(N)=O)C(C)C (centres unmarked) [PID, propylisopropyl acetamide]",sc Met,mice [1]; mice,77
same,Embryolethality (percent of total implants),NMRI mice,9.4%
same,Exencephaly (percent of live fetuses),NMRI mice,0 (0) %
same,Fetal Weight,NMRI mice,1.21 ± 0.07 g
same,Live Fetuses,NMRI mice,87 n
same,Total Implants,NMRI mice,96 n
same,effect on dural plasma protein extravasation,anaesthetized rats,has inhibitory effects on the dural plasma protein extravasation
same,ED50 (anticonvulsant activity),rats; oral feeding,22 mg/kg
same,Neurotox.,mice [2],<120
